Measurements published in the SangsterLogP compilation.

Assay: method code SF-AS, from DOI: 10.1016/0223-5234(92)90004-k

Compound | logP
COc1cc(SC)ccc1-c1cn2cccnc2n1 | 2.44
COc1cc(C(N)=O)ccc1-c1cn2cccnc2n1 | 0.7
COc1cc(OS(C)(=O)=O)ccc1-c1cn2cccnc2n1 | 1.05
COc1ccc(-c2nc3ncccc3[nH]2)c(OC)c1 | 2.56
COc1ccc(-c2cn3cccnc3n2)c(OC)c1 | 1.94
COc1cc(NS(C)(=O)=O)ccc1-c1cn2cccnc2n1 | 0.72

Results, then the compound that gave them:

logP | Compound
0.33 | COc1cc(S(C)=O)ccc1-c1nc2ncc(N)cc2[nH]1 (stereo not given)
1.68 | COc1ccc(-c2cn3cc(N)cnc3n2)c(OC)c1
1.18 | COc1cc(C(N)=O)ccc1-c1nc2cnccc2[nH]1
1.62 | COc1ccc(-c2nc3ncc(N)cc3[nH]2)c(OC)c1
